Experimental data taken from PMC7311426, “An amphipathic peptide with antibiotic activity against multidrug-resistant Gram-negative bacteria” (Nature Communications, 2020).
Values after ≈ are worked out from the molar mass of the structure shown. Like-named read-outs stand apart in the source and are kept apart here.

Assays:
P. aeruginosa = assay: microbe, parasite or virus in culture; conditions: Pseudomonas aeruginosa, mode of 6 replicates
Procedure, shortened: (§1)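 Broth microdilution in MHB, 2-fold 12-point series from 128 or 64 down to 0.06 or 0.03 μg mL^−1, 5 × 10^5 CFU mL^−1. Extra runs in CAMHB per CLSI and in MHB with 1% agarose; n ≥ 6.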

E. coli [1] = assay: microbe, parasite or virus in culture; conditions: Escherichia coli
Procedure, shortened: as §1

A. baumannii = assay: microbe, parasite or virus in culture; conditions: Acinetobacter baumannii, mode of 6 replicates
Procedure, shortened: as §1

S. enterica Typhi = assay: microbe, parasite or virus in culture; conditions: Salmonella enterica, ATCC14028 / TYPHI, read-out: BMD MIC
Procedure, shortened: as §1

K. pneumoniae = assay: microbe, parasite or virus in culture; conditions: Klebsiella pneumoniae, mode of 6 replicates
Procedure, shortened: as §1

E. coli [2] = test system: E. coli; parameters: method as in Hasman H, et al. Euro. Surveill. (2015) 20:49; conditions: E. coli ESBL20150072, mcr-1 pos; ESBL; CAMHB; comparator antibiotics; ref Hasman H, et al. Euro. Surveill. (2015) 20:49; cited from earlier work
[3] = test system: human primary hepatocytes; assay: Cell viability, human primary hepatocytes (Eurofins Panlabs); assay type: cell-based; conditions: Homo sapiens, Hepatocyte; plateable cryopreserved hepatocytes, alamarBlue, 24 h 37 °C, fluorimetry; 8-point 0.1–300 μM
Experimental: Cell viability of human primary hepatocytes against AA139 was assessed by fluorometric readout of Alamar Blue following 24 h incubation at 37 °C of human plateable cryopreserved hepatocytes and AA139 as an 8-point dose response, 0.1–300 μM, as described by Nociari et al.[41]. Cell viability was calculated as a percentage of the control cells and plotted versus concentration using Prism 8 Software. The IC50 value was determined by non-linear regression analysis of the concentration–response curve using the Hill equation. Assay was performed by Eurofins Pharma Discovery Services (Panlabs), St Charles, MO, USA, study number 100049990. Source data are provided as a source data file.

Compound | MIC (P. aeruginosa; ATCC27853, read-out: BMD MIC, P. aeruginosa ATCC 27853 control strain, CAMHB) [µg/mL] | MIC (P. aeruginosa; read-out: BMD MIC, P. aeruginosa FADDI-070, MDR, PmxR, MHB/CAMHB) [µg/mL] | MIC (E. coli [1]; ATCC25922, read-out: BMD MIC, E. coli ATCC 25922 FDA control strain, CAMHB, mode of 6 replicates) [µg/mL] | MIC (E. coli [1]; ATCC700926 / MG1655, read-out: BMD MIC) [µg/mL] | MIC (E. coli [1]; ATCC700928, read-out: BMD MIC, E. coli ATCC 700928 CFT073 UPEC, CAMHB, mode of 6 replicates) [µg/mL] | MIC (E. coli [1]; read-out: BMD MIC) [µg/mL] | MIC (A. baumannii; ATCC19636, read-out: BMD MIC, A. baumannii ATCC 19636 type strain, CAMHB) [µg/mL] | MIC (A. baumannii; read-out: BMD MIC, A. baumannii Greece CI, XDR, PmxR, MHB) [µg/mL] | MIC (S. enterica Typhi) [µg/mL] | MIC (K. pneumoniae; ATCC13883, read-out: BMD MIC, K. pneumoniae ATCC 13883 type strain (polymyxin/colistin heteroresistant), MHB) [µg/mL] | MIC (K. pneumoniae; ATCC700603, read-out: BMD MIC, K. pneumoniae ATCC 700603 (K6), MDR, OXA-2/SHV-18, CAMHB) [µg/mL] | MIC (K. pneumoniae; BAA2146, read-out: BMD MIC, K. pneumoniae BAA-2146, MDR, ESBL, NDM-1 pos, MHB) [µg/mL] | MIC (K. pneumoniae; read-out: BMD MIC, K. pneumoniae Greece CI 8_GR_13, XDR, KPC-2, PmxR, MHB) [µg/mL] | BMD MIC (E. coli [2]) [µg/mL] | IC50 [3] [µM]
CO/N=C(\C(=O)N[C@@H]1C(=O)N2C(C(=O)[O-])=C(C[N+]3(C)CCCC3)CS[C@H]12)c1csc(N)n1 [Cefepime, reference compound] | ≤ 0.5 | > 64 | ≤ 0.5 | ≤ 0.5 | ≤ 0.5 | 8 (≈ 16.6 µM) | 8 (≈ 16.6 µM) | > 64 | ≤ 0.5 | 1 (≈ 2.08 µM) | 0.5 (≈ 1.04 µM) | > 64 | > 64 | >2 | 
CN(C)CCCN1c2ccccc2Sc2ccc(Cl)cc21 [Chlorpromazine, reference compound] |  |  |  |  |  |  |  |  |  |  |  |  |  |  | 35
